Source: patent US20190241962A1, “GENETIC SUSCEPTIBILITY DIAGNOSIS AND TREATMENT OF MENTAL DISORDERS” (priority 2016, published 2019)
Entries after “also recorded” stand apart in the source; their conditions may differ.

What was measured:
ABHD6 = experiment: RT-PCR ABHD6 mRNA level in the cortex; type: in vivo, mice
Protocol: (§1) 100 microliters of 2-propanol was added. […] RNA was stored at −80 deg C.

[1] = system: endocannabinoid catabolic enzymes (FAAH, MGL, ABHD6); experiment: RT-PCR mRNA level of endocannabinoid catabolic enzymes in cortex and brainstem; type: in vivo, mice; conditions: BCP after exposure to phencyclidine, females
Protocol: as §1

NAPE-PLD = experiment: RT-PCR NAPE-PLD mRNA level in the cortex; type: in vivo, mice
Protocol: as §1

IL-6 = experiment: RT-PCR IL-6 mRNA level in the cortex; type: in vivo, mice
Protocol: as §1

MGL = experiment: RT-PCR MGL mRNA level in the cortex; type: in vivo, mice
Protocol: as §1

Sabra mice = experiment: Open-field test, ambulation behavior, PCP mouse model of schizophrenia
GAD67 = experiment: RT-PCR GAD67 mRNA level in the cortex; type: in vivo, mice
Protocol: as §1

FAAH = experiment: RT-PCR FAAH mRNA level in the cortex; type: in vivo, mice
Protocol: as §1

CB1 receptor = experiment: RT-PCR CB1 receptor mRNA level in the cortex; type: in vivo, mice
Protocol: as §1

CB2 receptor = experiment: RT-PCR CB2 receptor mRNA level in the cortex; conditions: PCP vs control group
Protocol: Each brain area was placed in an Eppendorf vessel and covered with RNAlater® solution (Ambion). Eppendorfs were stored overnight at 4° C. and then stored at (−)80° C. for permanent use.
Twenty microliters of 1-bromo-3-chloropropane were added and the Eppendorf was vortexed. After 10 min at room temperature it was centrifuged at 12,000×g for 15 minutes at 4° C. Then the colorless upper aqueous phase was removed to a fresh tube. 100 microliters of 2-propanol was added. Samples were centrifuged again 12,000×g for 10 minutes at 4° C. The supernatant was removed and the RNA pellet was washed with 200 ul cold 75% ethanol. The sample was re-centrifuged at 8000×g for 5 minutes at 4° C. The RNA pellet was dried for 5 minutes by air-drying on ice and 50 ul DEPC water were added to the RNA pellet. RNA was stored at −80 deg C. Genomic DNA strands were then removed by Turbo DNA-free Kit according to manufacturer's recommendation. RNA level was read by Nanodrop® reader. cDNA was prepared according to the manufacturer recommendation using High Capacity cDNA Reverse Transcription Kit (Applied Biosystems).
RT-PCR reaction mix was prepared with Power SYBR® Green PCR Master Mix (Applied Biosystems) according to manufacturer instructions. Mixes were read with Mx300P (Stratagen) and the results of Ct were analysed according to the delta-delta Ct method of analysis.

[2] = BCP after PCP, female mice, cortex
[3] = BCP after PCP, female mice, right and left cortices
[4] = BCP after PCP, male mice, cortex
[5] = PCP vs control group, female mice, left cortex
[6] = PCP vs control group, female mice, right cortex
[7] = PCP vs control group, male mice, left cortex
[8] = PCP vs control group, female mice, right and left cortices
[9] = PCP vs control group, male mice, cortex
[10] = PCP vs control group, male mice, right cortex

C=C1CC/C=C(\C)CC[C@@H]2[C@@H]1CC2(C)C [BCP, beta-caryophyllene]
ABHD6 mRNA level (ABHD6; [2]): did not reverse; also recorded: did not alter gene expression of ABHD6 | mRNA level of the selected endocannabinoid catabolic enzymes [1]: did not lead to significant changes | NAPE-PLD mRNA level (NAPE-PLD; [3]): did not reverse this effect | NAPE-PLD mRNA level (NAPE-PLD; [4]): did not affect the expression level of NAPE-PLD mRNA | IL-6 mRNA level (IL-6; [2]): did not alter gene expression of IL-6 | IL-6 mRNA level (IL-6; [4]): reversed the effect of PCP | MGL mRNA level (MGL; [2]): did not reverse; also recorded: did not alter gene expression of MGL | ambulation behavior (Sabra mice; BCP 10 mg/kg one hour after PCP, Sabra female mice): reversed altered behavior | ambulation behavior (Sabra mice; BCP 10 mg/kg one hour after PCP, Sabra male mice): reversed altered behavior | GAD67 mRNA level (GAD67; [3]): did not reverse this effect | GAD67 mRNA level (GAD67; [4]): did not affect the expression level of GAD67 mRNA | FAAH mRNA level (FAAH; [2]): did not reverse; also recorded: did not alter gene expression of FAAH | FAAH mRNA level (FAAH; BCP after PCP, male mice): reversed the effect of PCP | CB1 receptor mRNA level (CB1 receptor; [2]): did not alter gene expression of CB1 receptor | CB1 receptor mRNA level (CB1 receptor; [4]): did not alter gene expression of CB1 receptor

c1ccc(C2(N3CCCCC3)CCCCC2)cc1 [PCP, Phencyclidine]
ABHD6 mRNA level (ABHD6; [5]): significantly decreased; also recorded: reduced | ABHD6 mRNA level (ABHD6; [6]): not in the right cortex | ABHD6 mRNA level (ABHD6; [7]): not in males | CB2 receptor mRNA level (CB2 receptor; female mice, right cortex): reduced | CB2 receptor mRNA level (CB2 receptor; left cortex): no change | NAPE-PLD mRNA level (NAPE-PLD; [8]): reduced | NAPE-PLD mRNA level (NAPE-PLD; [9]): not altered | IL-6 mRNA level (IL-6; [5]): not in the left cortex | IL-6 mRNA level (IL-6; [6]): reduced | IL-6 mRNA level (IL-6; [7]): not in the left cortex | IL-6 mRNA level (IL-6; [10]): elevated | MGL mRNA level (MGL; [5]): significantly decreased; also recorded: reduced | MGL mRNA level (MGL; [7]): not in males | ambulation behavior (Sabra mice; PCP 5 mg/kg vs control group, Sabra female mice): reduced | ambulation behavior (Sabra mice; PCP 5 mg/kg vs control group, Sabra male mice): elevated | GAD67 mRNA level (GAD67; [8]): reduced | GAD67 mRNA level (GAD67; [9]): not altered | FAAH mRNA level (FAAH; [5]): significantly decreased; also recorded: reduced | CB1 receptor mRNA level (CB1 receptor; [6]): elevated; also recorded: increased | CB1 receptor mRNA level (CB1 receptor; [10]): elevated
